Laboratory results published in article PMC4038168 (Chemical communications (Cambridge, England), 2014).
pEC50: −log10 of the molar value. Entries after “also recorded” stand apart in the source; their conditions may differ.

Legend:
rat FAAH (r-FAAH) = molecular target: T1, rat FAAH (r-FAAH) (Rattus norvegicus, UniProt P97612); experiment: rat FAAH inhibition; format: biochemical
T1 sequence (P97612 1-579): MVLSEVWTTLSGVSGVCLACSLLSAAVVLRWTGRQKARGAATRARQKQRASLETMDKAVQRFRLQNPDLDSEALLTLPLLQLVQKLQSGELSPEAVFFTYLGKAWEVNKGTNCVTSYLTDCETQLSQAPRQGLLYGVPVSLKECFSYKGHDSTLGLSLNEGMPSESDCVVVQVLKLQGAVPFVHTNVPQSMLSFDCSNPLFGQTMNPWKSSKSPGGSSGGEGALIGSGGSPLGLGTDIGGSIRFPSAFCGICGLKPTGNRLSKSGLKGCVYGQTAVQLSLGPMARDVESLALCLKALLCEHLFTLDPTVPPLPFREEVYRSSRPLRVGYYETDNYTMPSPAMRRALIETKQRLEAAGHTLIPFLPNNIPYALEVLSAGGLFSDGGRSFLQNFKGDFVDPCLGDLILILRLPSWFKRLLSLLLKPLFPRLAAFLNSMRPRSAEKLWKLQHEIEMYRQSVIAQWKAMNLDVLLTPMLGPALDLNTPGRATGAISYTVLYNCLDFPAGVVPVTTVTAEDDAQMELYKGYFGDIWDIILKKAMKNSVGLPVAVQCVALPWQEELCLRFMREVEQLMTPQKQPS

cannabinoid receptor CB1 [1] = molecular target: T2, cannabinoid receptor CB1 (Homo sapiens, UniProt P21554); experiment: CB1 functional assay; format: cell-based
human FAAH (h-FAAH) = molecular target: T3, human FAAH (h-FAAH) (Homo sapiens, UniProt O00519); experiment: human FAAH inhibition; format: biochemical
T3 sequence (O00519 1-579): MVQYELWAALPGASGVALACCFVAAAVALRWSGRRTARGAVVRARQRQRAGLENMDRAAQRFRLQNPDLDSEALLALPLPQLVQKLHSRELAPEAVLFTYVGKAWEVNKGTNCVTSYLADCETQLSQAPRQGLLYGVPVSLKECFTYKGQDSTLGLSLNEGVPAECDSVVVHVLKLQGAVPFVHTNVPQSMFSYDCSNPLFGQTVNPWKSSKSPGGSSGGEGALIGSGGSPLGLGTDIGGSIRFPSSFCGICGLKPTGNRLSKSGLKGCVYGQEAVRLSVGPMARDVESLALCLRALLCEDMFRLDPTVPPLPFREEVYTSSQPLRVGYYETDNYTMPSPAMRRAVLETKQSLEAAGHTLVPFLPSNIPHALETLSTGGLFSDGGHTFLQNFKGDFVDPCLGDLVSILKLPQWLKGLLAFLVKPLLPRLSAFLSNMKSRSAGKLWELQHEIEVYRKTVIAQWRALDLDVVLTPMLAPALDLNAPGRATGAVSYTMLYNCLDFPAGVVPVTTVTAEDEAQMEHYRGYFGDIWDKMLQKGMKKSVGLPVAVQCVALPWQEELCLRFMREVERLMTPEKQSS

cannabinoid receptor CB1 [2] = molecular target: T2, cannabinoid receptor CB1; details: cited from earlier work
human DRD3 = human DRD3 (Homo sapiens, UniProt P35462); experiment: human DRD3 functional assay; format: cell-based
human DRD3, sequence (P35462 whole entry): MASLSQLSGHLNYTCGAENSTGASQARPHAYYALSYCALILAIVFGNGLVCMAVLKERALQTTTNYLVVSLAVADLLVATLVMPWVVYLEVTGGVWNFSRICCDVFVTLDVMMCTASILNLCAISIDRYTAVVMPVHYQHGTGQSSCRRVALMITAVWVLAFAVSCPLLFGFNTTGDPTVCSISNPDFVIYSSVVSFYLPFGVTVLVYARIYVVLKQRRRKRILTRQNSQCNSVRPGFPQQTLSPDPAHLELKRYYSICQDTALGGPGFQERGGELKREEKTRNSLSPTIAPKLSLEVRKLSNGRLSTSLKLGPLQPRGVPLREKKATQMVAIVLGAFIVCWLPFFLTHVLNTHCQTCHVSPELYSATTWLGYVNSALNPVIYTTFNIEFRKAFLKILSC

T2 sequence (P21554 whole entry): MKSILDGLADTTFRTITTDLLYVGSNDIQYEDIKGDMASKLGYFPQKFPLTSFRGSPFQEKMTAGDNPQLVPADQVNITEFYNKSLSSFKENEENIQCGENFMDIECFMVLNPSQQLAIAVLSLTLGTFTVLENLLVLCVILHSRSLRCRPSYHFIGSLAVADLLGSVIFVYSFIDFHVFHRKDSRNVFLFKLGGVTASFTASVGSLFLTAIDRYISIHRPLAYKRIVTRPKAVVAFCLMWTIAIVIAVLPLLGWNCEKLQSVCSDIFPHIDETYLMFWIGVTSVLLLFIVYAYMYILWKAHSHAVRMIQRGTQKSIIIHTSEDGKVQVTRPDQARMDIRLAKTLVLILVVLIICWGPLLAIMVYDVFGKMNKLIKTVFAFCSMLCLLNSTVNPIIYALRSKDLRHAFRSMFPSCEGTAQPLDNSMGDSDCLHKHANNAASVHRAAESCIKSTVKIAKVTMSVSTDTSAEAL

pEC50 (cannabinoid receptor CB1 [1]; read-out: CB1 EC50) | Structure (SMILES) | inhibitory activity on r-FAAH (in words) (rat FAAH (r-FAAH)) | CB1 activity (in words) (cannabinoid receptor CB1 [1]) | inhibitory activity on h-FAAH (in words) (human FAAH (h-FAAH)) | effect on CB1 (in words) (cannabinoid receptor CB1 [2]) | activity on DRD3 (in words) (human DRD3)
6.08 | O=C(NCCCCN1CCN(c2cccc(Cl)c2Cl)CC1)c1ccc(-c2ccccn2)cc1 [Compound 2, CJB090] | did not show any significant inhibitory activity | rather potent CB1 agonist | did not show any significant inhibitory activity |  | 
 | COc1ccccc1N1CCN(CCCCNC(=O)c2ccc3ccccc3c2)CC1 [Compound 3, BP-897] | did not show any significant inhibitory activity | completely devoid of CB1 activity; also recorded: did not show any activity | did not show any significant inhibitory activity |  | 
 | NC(=O)c1cccc(-c2cccc(OC(=O)NC3CCCCC3)c2)c1 [Compound 5, URB597] |  |  |  | no effect | no activity
